Like-named read-outs stand apart in the source and are kept apart here.

Assay [1] deals with dCK-C3S-S74E. Description: Thermal shift assay (TSA). The conditions noted are these: for ΔTm, dCK thermal stabilization (TSA): 5 μM protein, 50 μM compound; for Thermal Shift Assay Mean (ΔTm (º)): Figure 2b; for THERMAL SHIFT ASSAY +Tm (°): mean ± SD.
Description: BL21 pRIL Escherichia coli cells were transformed with dCK-plasmids (dCK-C4S-S74E (for crystallization assays) and dCK-C3S-S74E (for TSA, enzymatic and ITC assays)). […] Protein dCK-C3S-S74E used for other assays contained only three mutated cysteines. The S74E mutation mimics the phosphorylated state of this serine, which favors the open conformation of the enzyme, making it competent for nucleoside binding[45] to evaluate the binding affinity with compounds.
For binding assays (TSA, ITC and crystallography) cells were re-suspended in 50 mM TRIS, pH 8, 500 mM NaCl, 30 mM imidazole and 10% glycerol buffer and one EDTA free anti-protease tablet was added (Roche). After sonication and centrifugation (30,000 × g), the supernatant was loaded on a 5 ml HisTrap FF column (GE healthcare) pre-equilibrated with resuspension buffer. Protein was then eluted by resuspension buffer containing 500 mM imidazole. Protein eluted fractions were mixed and concentrated. Protein was further purified by size exclusion chromatography (superdex 200 16/600, GE healthcare) in 20 mM HEPES, pH 7.5, and 200 mM NaCl before concentration to 30 mg/ml and storage at −80 °C.
Thermal shift assay (TSA) experiments were performed in 384-well PCR white plates in the assay buffer containing 20 mM HEPES, pH 7.5 and 200 mM NaCl. […] Plates were centrifuged at 200 × g for 2 min at 4 °C. […] Raw fluorescence data were treated, and the melting temperatures (Tm) were calculated using CFX Manager 3.1 software (Bio-Rad). ΔTm represents the difference in Tm between the protein in the presence of compound and the protein alone (both at 2% DMSO). Each experiment was performed at least twice (with technical triplicates) and data are presented as the mean ± SD.
Assay [2] deals with dCK-C3S-S74E. Put plainly: Enzymatic assay (PK/LDH coupled), dC phosphorylation by dCK in the presence of UTP. The conditions noted are these: for ENZYMATIC ASSAY (Activation/Inhibition): presence of UTP; for effect on dCK enzymatic activity, activation versus inhibition: UTP 1 mM, dC 200 µM. The assay is classed as biochemical, human. In a few lines:
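Activation versus inhibition was judged with 1 mM UTP, 200 µM dC and 2 μM dCK-C3S-S74E, using pyruvate kinase/lactate dehydrogenase coupling that tracks NADH fluorescence decrease at 460 nm. Buffer was HEPES pH 7.5 with MgCl2, KCl and DTT. Rates came from linear slopes, expressed relative to compound-free control.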

In the next assay the test system is CCRF-CEM cell line. Description: dCK cellular assay: CCRF-CEM proliferation in the presence of dT and dC. Particulars: for activity at 0.078 µM: 78 nM; for activity at 0.156 µM: 156 nM; for activity at 0.312 µM: 312 nM; for activity at 0.625 µM: 625 nM; for activity at 1.25 µM: 1250 nM; for activity at 2.5 µM: 2500 nM; for activity at 5 µM: 5000 nM; for activity at 10 µM: 10000 nM; for activity at 20 µM: 20000 nM; for activity at 40 µM: 40000 nM; for activity at 0.0195 µM: 19.5 nM; for activity at 0.039 µM: 39 nM; for fold improvement of cellular IC50: versus the preceding compound of the optimization; for activity at 0.00975 µM: 9.75 nM. The assay is classed as cell-based, human. The essentials: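 Two conditions in T-ALL CCRF-CEM cells: compound only, and compound with thymidine blocking de novo synthesis and deoxycytidine rescuing via dCK. Metabolic dye fluorescence (560/590 nm) gives % proliferation vs DMSO; IC50s, mean ± SD of at least three triplicate runs.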

The mark [3] stands for this setting: Homo sapiens, CCRF-CEM, dT 200 µM + dC 1 µM, read-out: Cell proliferation of the CCRF-CEM cell line Mean (% prolif).
The mark [4] stands for this setting: Homo sapiens, CCRF-CEM, dT 200 µM + dC 1 µM, 72 h, read-out: IC50 cell proliferation (dCK cellular assay).

Chain of dCK-C3S-S74E (P27707 whole entry S74E, form open): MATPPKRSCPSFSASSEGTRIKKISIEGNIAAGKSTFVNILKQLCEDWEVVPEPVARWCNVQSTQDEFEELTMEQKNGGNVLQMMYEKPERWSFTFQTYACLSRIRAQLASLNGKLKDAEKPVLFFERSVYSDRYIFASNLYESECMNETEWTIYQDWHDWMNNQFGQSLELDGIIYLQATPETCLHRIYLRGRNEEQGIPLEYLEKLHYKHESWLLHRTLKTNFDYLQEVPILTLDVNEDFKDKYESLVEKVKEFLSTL

With `Cc1ccc(-c2ccc(CN3CCN(C)CC3)cc2)cc1Nc1nc(-c2nccc(N)n2)cs1` [OR0274], in the assay on dCK-C3S-S74E [1], the “ΔTm, dCK thermal stabilization (TSA)” value was 16.7 °C; the “Thermal Shift Assay Mean (ΔTm (º))” value is 16.7 º; the “THERMAL SHIFT ASSAY +Tm (°)” value is recorded as 16.7 ± 0.3 °. The “ENZYMATIC ASSAY (Activation/Inhibition)” value in the assay on dCK-C3S-S74E [2] is on record as “A/I”. In addition, in the assay with CCRF-CEM cell line (setting [3]), the activity at 0.078 µM was determined as 103%, the activity at 0.156 µM came out at 94.8%, the activity at 0.312 µM is 95.1% and the activity at 0.625 µM was 90.1%. In addition, in the assay on CCRF-CEM cell line (setting [3]), the activity at 1.25 µM came out at 75%, the activity at 2.5 µM was determined as 55.5%, the activity at 5 µM came out at 31% and the activity at 10 µM amounted to 7.8%. In the assay on CCRF-CEM cell line (setting [3]), the activity at 20 µM was -0.0667% and the activity at 40 µM is 0.167%. Moreover, in the assay with CCRF-CEM cell line (setting [4]), the IC50 was determined as 2100 nM.
With `Cc1ccc(-c2ccc(CCN3CCN(C)CC3)cc2)cc1Nc1nc(-c2nccc(N)n2)cs1` [OR0325], in the assay with dCK-C3S-S74E [1], the “ΔTm, dCK thermal stabilization (TSA)” value is 17.8 °C; the “Thermal Shift Assay Mean (ΔTm (º))” value was 17.8 º; the “THERMAL SHIFT ASSAY +Tm (°)” value is 17.9 ± 0.3 °. Moreover, the “ENZYMATIC ASSAY (Activation/Inhibition)” value in the assay with dCK-C3S-S74E [2] is “A/I”. In the assay with CCRF-CEM cell line (setting [3]), the activity at 0.078 µM stood at 100%, the activity at 0.156 µM stood at 92.4%, the activity at 0.312 µM is 88.7% and the activity at 0.625 µM is 81.5%. Moreover, in the assay with CCRF-CEM cell line (setting [3]), the activity at 1.25 µM is 61.9%, the activity at 2.5 µM was determined as 40.5%, the activity at 5 µM is 11.6% and the activity at 10 µM was 0.0667%. Further, in the assay on CCRF-CEM cell line (setting [3]), the activity at 20 µM is -0.0333% and the activity at 40 µM worked out at 0.3%. For the same molecule, the IC50 with CCRF-CEM cell line (setting [4]) turned out to be 1680 nM.
Consider `CCCN(c1nc(-c2nccc(N)n2)cs1)c1cc(-c2ccc(CCN3CCN(C)CC3)cc2)ccc1C` [OR0345], for which, in the assay with dCK-C3S-S74E [1], the “ΔTm, dCK thermal stabilization (TSA)” value amounted to 18.4 °C; the “Thermal Shift Assay Mean (ΔTm (º))” value is listed as 18.4 º; the “THERMAL SHIFT ASSAY +Tm (°)” value is 18.4 ± 0.2 °. In the assay with dCK-C3S-S74E [2], the “effect on dCK enzymatic activity, activation versus inhibition” value is on record as “total loss of dCK enzymatic activation” and the “ENZYMATIC ASSAY (Activation/Inhibition)” value was “I”. Also, in the assay with CCRF-CEM cell line (setting [3]), the activity at 0.0195 µM was found to be 90.6%, the activity at 0.039 µM was found to be 85.8%, the activity at 0.078 µM was 82% and the activity at 0.156 µM is 72.4%. In the assay on CCRF-CEM cell line (setting [3]), the activity at 0.312 µM worked out at 63.4%, the activity at 0.625 µM was 51.4%, the activity at 1.25 µM amounted to 37.6% and the activity at 2.5 µM was 19.3%. For the same molecule, in the assay on CCRF-CEM cell line (setting [3]), the activity at 5 µM was determined as 2.4% and the activity at 10 µM stood at 0.333%. For the same molecule, the IC50 with CCRF-CEM cell line (setting [4]) stood at 505 nM. Besides, the “fold improvement of cellular IC50” value with CCRF-CEM cell line was determined as 3 fold.
In the case of `CCCN(c1nc(-c2nc(N)cc(N)n2)cs1)c1cc(-c2ccc(CCN3CCN(C)CC3)cc2)ccc1C` [OR0600], in the assay with dCK-C3S-S74E [1], the “ΔTm, dCK thermal stabilization (TSA)” value turned out to be 20 °C; the “Thermal Shift Assay Mean (ΔTm (º))” value is 20.0 º; the “THERMAL SHIFT ASSAY +Tm (°)” value is on record as 20.0 ± 0.6 °. Further, in the assay with dCK-C3S-S74E [2], the “effect on dCK enzymatic activity, activation versus inhibition” value was “only exhibited enzymatic inhibition” and the “ENZYMATIC ASSAY (Activation/Inhibition)” value is “I”. Besides, in the assay on CCRF-CEM cell line (setting [3]), the activity at 0.00975 µM is 104%, the activity at 0.0195 µM was determined as 98.6%, the activity at 0.039 µM is 91.6% and the activity at 0.078 µM came to 85.9%. Besides, in the assay on CCRF-CEM cell line (setting [3]), the activity at 0.156 µM was found to be 76.2%, the activity at 0.312 µM came out at 59.2%, the activity at 0.625 µM came out at 40.4% and the activity at 1.25 µM came out at 22.2%. Besides, in the assay on CCRF-CEM cell line (setting [3]), the activity at 2.5 µM was 5.5% and the activity at 5 µM amounted to 0.133%. In addition, the IC50 in the assay on CCRF-CEM cell line (setting [4]) came to 341 nM.
`CCCN(c1nc(-c2nc(N)cc(N)n2)cs1)c1cc(-c2ccc(CCN3CCN(C)CC3)nc2)ccc1C` [OR0602]: in the assay on dCK-C3S-S74E [1], the “ΔTm, dCK thermal stabilization (TSA)” value was 19.5 °C; the “Thermal Shift Assay Mean (ΔTm (º))” value is recorded as 19.7 º; the “THERMAL SHIFT ASSAY +Tm (°)” value came to 19.5 ± 0.5 °. Further, in the assay on dCK-C3S-S74E [2], the “ENZYMATIC ASSAY (Activation/Inhibition)” value is on record as “I”. For the same molecule, the activity at 0.004875 µM in the assay with CCRF-CEM cell line (Homo sapiens, CCRF-CEM, 4.875 nM, dT 200 µM + dC 1 µM, read-out: Cell proliferation of the CCRF-CEM cell line Mean (% prolif)) stood at 91.9%. For the same molecule, in the assay with CCRF-CEM cell line (setting [3]), the activity at 0.00975 µM stood at 88%, the activity at 0.0195 µM was 81.5%, the activity at 0.039 µM stood at 67.1% and the activity at 0.078 µM was found to be 58.6%. In addition, in the assay on CCRF-CEM cell line (setting [3]), the activity at 0.156 µM was 47.4%, the activity at 0.312 µM was 36.8%, the activity at 0.625 µM was 27.7% and the activity at 1.25 µM was 20.9%. In addition, in the assay with CCRF-CEM cell line (setting [3]), the activity at 2.5 µM came out at 12.7%. In addition, the IC50 in the assay with CCRF-CEM cell line (setting [4]) was 130 nM. Also, the “fold improvement of cellular IC50” value in the assay with CCRF-CEM cell line is listed as ~ 2.4 fold.
With `CCCN(c1nc(-c2nc(N)cc(N)n2)cs1)c1cc(-c2ccc(S(=O)(=O)N3CCN(C)CC3)c(OC)c2)ccc1C` [OR0635], in the assay on dCK-C3S-S74E [1], the “ΔTm, dCK thermal stabilization (TSA)” value stood at 20.4 °C; the “Thermal Shift Assay Mean (ΔTm (º))” value was 20.7 º; the “THERMAL SHIFT ASSAY +Tm (°)” value turned out to be 20.40 ± 0.9 °. Further, in the assay on dCK-C3S-S74E [1] (Figure 2a, mean), the “ΔTm (º) (TSA)” value is recorded as 20.4 º. In addition, the “ENZYMATIC ASSAY (Activation/Inhibition)” value in the assay with dCK-C3S-S74E [2] is reported as “I”. In the assay on CCRF-CEM cell line (Homo sapiens, CCRF-CEM, 0.17 nM, dT 200 µM + dC 1 µM, read-out: Cell proliferation of the CCRF-CEM cell line Mean (% prolif)), the activity at 0.00017 µM is 97%. The activity at 0.0005 µM in the assay with CCRF-CEM cell line (Homo sapiens, CCRF-CEM, 0.5 nM, dT 200 µM + dC 1 µM, read-out: Cell proliferation of the CCRF-CEM cell line Mean (% prolif)) amounted to 85.1%. Also, the activity at 0.0015 µM in the assay with CCRF-CEM cell line (Homo sapiens, CCRF-CEM, 1.5 nM, dT 200 µM + dC 1 µM, read-out: Cell proliferation of the CCRF-CEM cell line Mean (% prolif)) was determined as 74.1%. Also, the activity at 0.0046 µM in the assay with CCRF-CEM cell line (Homo sapiens, CCRF-CEM, 4.6 nM, dT 200 µM + dC 1 µM, read-out: Cell proliferation of the CCRF-CEM cell line Mean (% prolif)) is 62.3%. Besides, the activity at 0.014 µM with CCRF-CEM cell line (Homo sapiens, CCRF-CEM, 14 nM, dT 200 µM + dC 1 µM, read-out: Cell proliferation of the CCRF-CEM cell line Mean (% prolif)) was 48.1%. In addition, the activity at 0.041 µM with CCRF-CEM cell line (Homo sapiens, CCRF-CEM, 41 nM, dT 200 µM + dC 1 µM, read-out: Cell proliferation of the CCRF-CEM cell line Mean (% prolif)) was found to be 35.9%. The activity at 0.123 µM in the assay with CCRF-CEM cell line (Homo sapiens, CCRF-CEM, 123 nM, dT 200 µM + dC 1 µM, read-out: Cell proliferation of the CCRF-CEM cell line Mean (% prolif)) stood at 24.4%. Further, the activity at 0.37 µM with CCRF-CEM cell line (Homo sapiens, CCRF-CEM, 370 nM, dT 200 µM + dC 1 µM, read-out: Cell proliferation of the CCRF-CEM cell line Mean (% prolif)) is 17.8%. Further, in the assay on CCRF-CEM cell line (Homo sapiens, CCRF-CEM, 1111 nM, dT 200 µM + dC 1 µM, read-out: Cell proliferation of the CCRF-CEM cell line Mean (% prolif)), the activity at 1.111 µM came out at 14.8%. In the assay on CCRF-CEM cell line (Homo sapiens, CCRF-CEM, 3333 nM, dT 200 µM + dC 1 µM, read-out: Cell proliferation of the CCRF-CEM cell line Mean (% prolif)), the activity at 3.333 µM came to 10.3%. Besides, the IC50 in the assay on CCRF-CEM cell line (Homo sapiens, read-out: dCK CELLULAR ASSAY IC50 (nM), CCRF-CEM, 200 µM dT and 1 µM dC, read-out: dCK […] ASSAY IC50) was found to be 15.4 ± 10 nM. Also, the IC50 in the assay on CCRF-CEM cell line (setting [4]) was determined as 15 nM. The IC50 in the assay on CCRF-CEM cell line (Homo sapiens, Figure 2a, CCRF-CEM cell line, mean, read-out: IC50 (nM) (Cell Prolif)) turned out to be 14 nM.

(Values after publication PMC10227015, “From a drug repositioning to a structure-based drug design approach to tackle acute lymphoblastic leukemia” (Nature Communications, 2023).)
